Eleven molecules from patent publication US4576949A, “Use of 5,6,7,8-tetrahydroquinolines and 5,6-dihydropyrindines as leukotriene and lipoxygenase inhibitors and the novel 3-substituted compounds therein” (The Upjohn Company, priority 1984, dated 1986) can be followed below.

For the test, the system named is LTC/LTD. Put plainly: inhibition of leukotriene C and D (LTC/LTD) synthesis in vitro. The format is cell-based. The note with it: for activity at 0.1 µg: 0.1 μg, read-out: LTC/LTD inhibition, expressed as % of control, at 0.1; for activity at 1 µg / LTC/LTD inhibition, expressed as % of control, at 1.0: 1.0 μg; for activity at 1 µg: read-out: LTC/LTD inhibition, expressed as % of control, at 1.0; for activity at 10 µg: read-out: LTC/LTD inhibition, expressed as % of control, at 10 μg. An excerpt:
Thus, the following TABLE II provides examples of the biological activity as determined by methods known in the art (see Bach, M. K., et al., 6,9-deepoxy-6,9-phenylimino-Δ-6,8-prostaglandin I1, (U-60,257). A New Inhibitor of Leukotriene C and D Synthesis: In Vitro Studies. Prostaglandins 23, 759-771, 1982.) for the present invention having formula II.
^a Values for inhibition are expressed as % of control.
LTC/LTD is leukotriene C or D.

As to `CCOC(=O)c1cc2c(nc1C)C(=Cc1ccc(OC(C)=O)cc1)CCC2` [8-[[4-(Acetyloxy)phenyl]methylene]-5,6,7,8-tetrahydro-2-methyl-3-quinolinecarboxylic acid ethyl ester], the activity at 0.1 µg turned out to be 89% and the activity at 1 µg was found to be 78%. Besides, the activity at 10 µg (10 μg) came out at 34%.
Take `CCOC(=O)c1cc2c(nc1C)C(=Cc1ccccc1)CCC2` [5,6,7,8-Tetrahydro-2-methyl-8-(phenylmethylene)-3-quinolinecarboxylic acid ethyl ester]: the “LTC/LTD inhibition, expressed as % of control, at 1.0” value is reported as 96 % of control and the activity at 1 µg was determined as 101%.
As to `CCOC(=O)c1cc2c(nc1C)C(=Cc1ccco1)CCC2` [N; XIV; n 1; R8 CH3; R9 CO2 Et, 8-(2-Furanylmethylene)-5,6,7,8-tetrahydro-2-methyl-3-quinolinecarboxylic acid ethyl ester], under “10 μg”, the “LTC/LTD inhibition, expressed as % of control, at 10 μg” value is given as 31 % of control and the activity at 10 µg is 16%.
For the molecule `CCOC(=O)c1cc2c(nc1C)C(Cc1ccccc1)CCC2` (centres unmarked) [5,6,7,8-Tetrahydro-2-methyl-8-(phenylmethyl)-3-quinolinecarboxylic acid ethyl ester], the activity at 0.1 µg is 110%.
Consider `C(=C1CCCc2cccnc21)c1ccccc1` [N; XII wherein M is H; n 1; R8 H; R9 H, 5,6,7,8-Tetrahydro-8-(phenylmethylene)-quinoline], for which the activity at 1 µg amounted to 105%. For the same molecule, for the setting “10 μg”, the activity at 10 µg was 33%.
In the same order, the values of `CCOC(=O)c1cc2c(nc1C)C(CC1CCCO1)CCC2` (centres unmarked) [N; XIX; n 1; R8 CH3; R9 CO2 Et] are 67% and 52%.
Take `CCOC(=O)c1cc2c(nc1C)C(CC(=O)CCCO)CCC2` (centres unmarked) [N; CHCO(CH2)3 OH; n 1; R8 CH3; R9 CO2 Et, 5,6,7,8-Tetrahydro-8-(5-hydroxy-2-oxopentyl)-2-methyl-3-quinolinecarboxylicacid ethyl ester]: the activity at 0.1 µg was 19% and the activity at 1 µg was found to be 52%. For the setting “10 μg”, the activity at 10 µg is 41%.
With `COC(=O)C=Cc1cc2c(nc1C)C(=Cc1ccccc1)CCC2` [3-[5,6,7,8-Tetrahydro-2-methyl-8-(phenylmethylene)-3-quinolinyl]-2-propenoic acid methyl ester], the activity at 1 µg was determined as 99%. Where the note is “10 μg”, the activity at 10 µg was 117%.
As for `CC(=O)Oc1ccc(C=C2CCc3cccnc32)cc1` [4-[(5,6-Dihydro-7H-pyrindin-7-ylidene)methyl]phenol acetate], the activity at 1 µg amounted to 88%. Also, the activity at 10 µg (10 μg) came out at 45%.
In the same order, the values of `C(=C1CCc2cccnc21)c1cccs1` [N; XV; n 0; R8 H; R9 H, 5,7 -Dihydro-7-(2-thienylmethylene)-5H-1-pyrindine] are 67% and 15%.
As to `CCOC(=O)c1cc2c(nc1C)C(CCCCCO)CCC2` (centres unmarked) [5,6,7,8-Tetrahydro-8-(5-hydroxypentyl)-2-methyl-3-quinolinecarboxylic acid ethyl ester], the “LTC/LTD inhibition, expressed as % of control, at 1.0” value is 140 % of control and the activity at 1 µg was determined as 121%.
